Laboratory results from patent US20110097274A1, “Carbon-11 and fluorine-18 labeled radioligands for positron emission tomography (PET) imaging for the brain serotonin transporters” (priority 2002, published 2011).
Several values for one entry are separate records, joined by “and”; a condition that tells them apart may be missing. Identical values can stand only once. Like-named read-outs stand apart in the source and are kept apart here.

What was measured:
[1] = Plasma free fraction (f1) and filter retention by ultrafiltration; type: in vitro ADME, baboon; details: mean ± SD of four experiments
Procedure: Plasma and ultrafiltrate activities were counted, and f1 was calculated as the ratio of ultrafiltrate activity to total plasma activity. Triplicate aliquots of the radioligand in pH 7.4 Tris buffer were also processed to determine the filter retention of free tracer.

[2] = Baboon PET imaging: brain uptake, kinetic analysis and SERT parameters; type: in vivo; details: male, baboon, intravenous, baboons
Procedure: (§1) PET imaging protocol: PET experiments (n=20) were performed at Columbia University. Two adult male baboons (baboon A and B) were studied twice with each of the 5 radioligands (4 experiments per radioligand). All experiments took place within a 9-month period. Baboons A and B were 31 kg and 21 kg in weight at the beginning of the experimental period and 28 and 22 kg at the end, respectively. Test and retest experiments with the same radioligand were obtained on different days, with an average interval of 117±53 days.
(§2) Experiments were performed according to protocols approved by the Columbia-Presbyterian Medical Center Institutional Animal Care and Use Committee. Fasted animals were immobilized with ketamine (10 mg/kg i.m.), and anesthetized with 1.8% isoflurane via an endotracheal tube. Vital signs were monitored every 10 minutes and the temperature was kept constant at 37° C. with heated water blankets. An i.v. perfusion line was used for hydration and injection of radioligands and nonradioactive drugs. A catheter was inserted in a femoral artery for arterial blood sampling. Head was positioned at the center of the field of view as defined by imbedded laser lines. PET imaging was performed with the ECAT EXACT HR+PET scanner (Siemens/CTI, Knoxville, Tenn.). In 3D mode, this camera provides an in-plane resolution of 4.3 mm, 4.5 mm, 5.4 mm and 8.0 mm full width at half maximum (FWHM) at a distance of 0, 1, 10 and 20 cm from the center of the field of view, respectively (Brix et al., 1997). A 15 minute transmission scan was obtained prior to radioligand injection for attenuation correction. Activity was injected i.v. over 30 seconds. […] Emission data was collected in the 3D mode for 91 minutes as 21 successive frames of increasing duration (6*10 seconds, 2*1 minutes, 4*2 minutes, 2*5 minutes, and 7*10 minutes).
(§3) Image analysis: A Magnetic Resonance Image (MRI) of each baboon's brain was obtained for the purpose of identifying the regions of interest (ROI) (T1-weighted axial MRI sequence, acquired parallel to the anterior-posterior commissure, TR 34 msec, TE 5 msec, flip angle of 45 degrees, slice thickness is 1.5 mm, zero gap, matrix 1.5 mm×1 mm×1 mm voxels). The following regions were drawn on the MR images: cerebellum, midbrain, thalamus, striatum, hippocampus, temporal cortex, cingulate cortex and occipital cortex.
(§4) PET emission data were attenuation-corrected using the transmission scan, and frames were reconstructed using a Shepp filter (cutoff 0.5 cycles/projection rays). Reconstructed image files were then processed using the image analysis software MEDx (Sensor Systems, Inc., Sterling, Va.). An image was created by summing all the frames, and this summed image was used to define the registration parameters with the MR image, using between-modality automated image registration (AIR) algorithm (Woods et al., 1993). Registration parameters were then applied to the individual frames for registration to the MR data set. Regional boundaries were transferred to the individual registered PET frames, and time-activity curves were measured and decay-corrected. Right and left regions were averaged. For a given animal, the same regions were used for all radioligands.
(§5) Brain uptake: Total brain uptake was expressed as percentage of the injected dose per gram of tissue (% ID g^−1) in a region encompassing the entire brain. Regional peak time was defined as the mid-time of the frame associated with the highest activity value. To estimate the degree of wash-out from the brain captured during the scan interval (91 minutes), the decrease in activity from the peak frame to the last frame was calculated and expressed in percentage of the peak activity.
(§6) Kinetic analysis: Regional total distribution volumes (VT, mL g^−1) were derived with kinetic analysis of the regional time-activity curves, using the arterial plasma concentrations as input function. […]

SERT = test: as above; type: in vivo; details: for Kp: male, baboon, brain, intravenous
Procedure: as §1, §2, §3, §4, §5, §6

[3] = BP = VT ROI − VT CER, baboons, mean ± SD of four experiments
[4] = Mean ± SD of four experiments in two baboons
[5] = baboon A, experiments of FIGS. 5-9 (FIG. 10)
[6] = baboons, mean ± SD of four experiments
[7] = last scan 90 minutes, baboons, mean ± SD of four experiments
[8] = one-tissue compartment model, baboons, mean ± SD of four experiments

SMILES: CN(C)Cc1ccccc1Sc1ccc(I)cc1N [[^11C]ADAM]
- Filter retention ([1]; activity remaining on filter, radioligand dissolved in saline): 88.2 ± 5.2%
- fraction unbound at 20 min ([1]; male, monkey, baboon plasma, ultrafiltration): 0.009 ± 0.007
- Kp ([2]; brain regions (average of all regions), read-out: VT, average of all regions and all animals): 42.8 ± 12.9
- Kp ([2]; cerebellum, one-tissue compartment model, mean ± SD of four experiments, read-out: VT Cerebellum (VT CER, nonspecific distribution volume)): 28.5 ± 4.8
- Binding potential Cingulate Cortex (SERT; [3]): 8.8 ± 3.9 mL/g
- Binding potential Hippocampus (SERT; [3]): 12.6 ± 3.3 mL/g
- Binding potential Midbrain (SERT; [3]): 28.5 ± 6.7 mL/g
- Binding potential Occipital Cortex (SERT; [3]): 4.9 ± 3.8 mL/g
- Binding potential Striatum (SERT; [3]): 17.8 ± 3.7 mL/g
- Binding potential Temporal Cortex (SERT; [3]): 10.1 ± 5.0 mL/g
- Binding potential Thalamus (SERT; [3]): 31.4 ± 6.1 mL/g
- Equilibrium specific to non-specific partition coefficient (V3″) Cingulate Cortex (SERT; Baboon A, single experiment): 0.28 and 0.43
- Equilibrium specific to non-specific partition coefficient (V3″) Hippocampus (SERT; Baboon A, single experiment): 0.41 and 0.49
- Equilibrium specific to non-specific partition coefficient (V3″) Midbrain (SERT; Baboon A, single experiment): 1.04 and 0.81
- Equilibrium specific to non-specific partition coefficient (V3″) Striatum (SERT; Baboon A, single experiment): 0.65 and 0.59
- Equilibrium specific to non-specific partition coefficient (V3″) Temporal Cortex (SERT; Baboon A, single experiment): 0.41 and 0.47
- Equilibrium specific to non-specific partition coefficient (V3″) Thalamus (SERT; Baboon A, single experiment): 1.18 and 0.92
- Equilibrium specific to non-specific partition coefficient (V3″) Cingulate Cortex (SERT; Baboon B, single experiment): 0.23 and 0.26
- Equilibrium specific to non-specific partition coefficient (V3″) Hippocampus (SERT; Baboon B, single experiment): 0.38 and 0.47
- Equilibrium specific to non-specific partition coefficient (V3″) Midbrain (SERT; Baboon B, single experiment): 0.91 and 1.25
- Equilibrium specific to non-specific partition coefficient (V3″) Occipital Cortex (SERT; Baboon B, single experiment): 0.07 and 0.12
- Equilibrium specific to non-specific partition coefficient (V3″) Striatum (SERT; Baboon B, single experiment): 0.56 and 0.68
- Equilibrium specific to non-specific partition coefficient (V3″) Temporal Cortex (SERT; Baboon B, single experiment): 0.18 and 0.30
- Equilibrium specific to non-specific partition coefficient (V3″) Thalamus (SERT; Baboon B, single experiment): 1.05 and 1.26
- Equilibrium specific to non-specific partition coefficient (V3″) Cingulate Cortex (SERT; [4]): 0.30 ± 0.09
- Equilibrium specific to non-specific partition coefficient (V3″) Hippocampus (SERT; [4]): 0.44 ± 0.05
- Equilibrium specific to non-specific partition coefficient (V3″) Midbrain (SERT; [4]): 1.00 ± 0.19
- Equilibrium specific to non-specific partition coefficient (V3″) Occipital Cortex (SERT; [4]): 0.16 ± 0.11
- Equilibrium specific to non-specific partition coefficient (V3″) Striatum (SERT; [4]): 0.62 ± 0.06
- Equilibrium specific to non-specific partition coefficient (V3″) Temporal Cortex (SERT; [4]): 0.34 ± 0.13
- Equilibrium specific to non-specific partition coefficient (V3″) Thalamus (SERT; [4]): 1.10 ± 0.15
- Thalamus to cerebellum ratio equal to true equilibrium ratio (V3″+1) (SERT; [5]): 1.92
- Time at which measured thalamus to cerebellum ratio equals the true equilibrium ratio (estimate of peak specific binding) (SERT; [5]): 55 min
- K1, average of all regions and all animals (SERT; baboons): 1.09 ± 0.35 mL/g/min
- k2, average of all regions and all animals (SERT; baboons): 0.028 ± 0.011 min⁻¹
- V3″ expressed in percentage of [^11C]McN 5652 V3″ (SERT; baboons, combining all regions): 128±24%
- Mean regional peak uptake time (SERT; baboons, mean of all regions): 37 ± 18 min
- Mean regional wash-out (% decrease between peak time and last scan) (SERT; baboons, mean of all regions): 25±14%
- Cingulate Cortex to cerebellum activity ratio at 90 minutes (SERT; [6]): 1.29 ± 0.07
- Hippocampus to cerebellum activity ratio at 90 minutes (SERT; [6]): 1.45 ± 0.06
- Midbrain to cerebellum activity ratio at 90 minutes (SERT; [6]): 1.96 ± 0.18
- Occipital Cortex to cerebellum activity ratio at 90 minutes (SERT; [6]): 1.14 ± 0.09
- Regional uptake peak time Cerebellum (SERT; [6]): 14 ± 5 min
- Regional uptake peak time Cingulate Cortex (SERT; [6]): 32 ± 17 min
- Regional uptake peak time Hippocampus (SERT; [6]): 46 ± 8 min
- Regional uptake peak time Midbrain (SERT; [6]): 49 ± 22 min
- Regional uptake peak time Occipital Cortex (SERT; [6]): 30 ± 18 min
- Regional uptake peak time Striatum (SERT; [6]): 39 ± 15 min
- Regional uptake peak time Temporal Cortex (SERT; [6]): 39 ± 13 min
- Regional uptake peak time Thalamus (SERT; [6]): 51 ± 24 min
- Striatum to cerebellum activity ratio at 90 minutes (SERT; [6]): 1.65 ± 0.13
- Temporal Cortex to cerebellum activity ratio at 90 minutes (SERT; [6]): 1.33 ± 0.08
- Thalamus to cerebellum activity ratio at 90 minutes (SERT; [6]): 2.05 ± 0.23
- Total brain uptake at 45 min (SERT; baboons, region encompassing the entire brain): 0.017±0.001 % ID g^−1
- Regional activity wash-out: % decrease from peak to last scan, Cerebellum (SERT; [7]): 45 ± 8%
- Regional activity wash-out: % decrease from peak to last scan, Cingulate Cortex (SERT; [7]): 34 ± 7%
- Regional activity wash-out: % decrease from peak to last scan, Hippocampus (SERT; [7]): 15 ± 6%
- Regional activity wash-out: % decrease from peak to last scan, Midbrain (SERT; [7]): 10 ± 7%
- Regional activity wash-out: % decrease from peak to last scan, Occipital Cortex (SERT; [7]): 36 ± 10%
- Regional activity wash-out: % decrease from peak to last scan, Striatum (SERT; [7]): 23 ± 6%
- Regional activity wash-out: % decrease from peak to last scan, Temporal Cortex (SERT; [7]): 25 ± 8%
- Regional activity wash-out: % decrease from peak to last scan, Thalamus (SERT; [7]): 12 ± 5%
- Kp (SERT; cingulate cortex, one-tissue compartment model, baboons, mean ± SD of four experiments, read-out: VT Cingulate Cortex): 37.3 ± 8.5
- Kp (SERT; hippocampus, one-tissue compartment model, baboons, mean ± SD of four experiments, read-out: VT Hippocampus): 41.1 ± 8
- Kp (SERT; midbrain, one-tissue compartment model, baboons, mean ± SD of four experiments, read-out: VT Midbrain): 57 ± 10.2
- Kp (SERT; occipital cortex, one-tissue compartment model, baboons, mean ± SD of four experiments, read-out: VT Occipital Cortex): 33.5 ± 8.3
- Kp (SERT; striatum, one-tissue compartment model, baboons, mean ± SD of four experiments, read-out: VT Striatum): 46.3 ± 8.4
- Kp (SERT; temporal cortex, one-tissue compartment model, baboons, mean ± SD of four experiments, read-out: VT Temporal Cortex): 38.6 ± 9.7
- Kp (SERT; thalamus, one-tissue compartment model, baboons, mean ± SD of four experiments, read-out: VT Thalamus): 59.9 ± 10.1
- K1 Cerebellum (SERT; [8]): 1.23 ± 0.44 mL/g/min
- K1 Cingulate Cortex (SERT; [8]): 1.20 ± 0.38 mL/g/min
- K1 Hippocampus (SERT; [8]): 0.85 ± 0.32 mL/g/min
- K1 Midbrain (SERT; [8]): 1.00 ± 0.35 mL/g/min
- K1 Occipital Cortex (SERT; [8]): 1.12 ± 0.33 mL/g/min
- K1 Striatum (SERT; [8]): 1.15 ± 0.45 mL/g/min
- K1 Temporal Cortex (SERT; [8]): 1.02 ± 0.37 mL/g/min
- K1 Thalamus (SERT; [8]): 1.14 ± 0.32 mL/g/min
- K2 Cerebellum (SERT; [8]): 0.043 ± 0.012 min⁻¹
- K2 Cingulate Cortex (SERT; [8]): 0.033 ± 0.009 min⁻¹
- K2 Hippocampus (SERT; [8]): 0.021 ± 0.006 min⁻¹
- K2 Midbrain (SERT; [8]): 0.018 ± 0.006 min⁻¹
- K2 Occipital Cortex (SERT; [8]): 0.034 ± 0.010 min⁻¹
- K2 Striatum (SERT; [8]): 0.025 ± 0.008 min⁻¹
- K2 Temporal Cortex (SERT; [8]): 0.027 ± 0.009 min⁻¹
- K2 Thalamus (SERT; [8]): 0.020 ± 0.006 min⁻¹
- VT Cerebellum (VT CER, nonspecific distribution volume) (SERT; [8]): 28.5 ± 4.8 mL/g
